From patent US12655116B2, “Substituted isophthalic acid diamides” (Bayer Aktiengesellschaft, priority 2020, dated 2026)

Legend:
VIOTR = experiment: Post-emergence herbicidal action against VIOTR; type: in vivo, Viola tricolor; settings: Viola tricolor, 504 h, 80 g/ha
Summary of the method: (§1)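 Greenhouse plants in sandy loam were sprayed at the one-leaf stage, 2 to 3 weeks after sowing, with WP or EC formulations as aqueous suspension or emulsion (600 to 800 l/ha water, 0.2% wetting agent). Visual damage was scored about 3 weeks later versus untreated controls, 0% = like control, 100% = dead.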

STEME [1] = experiment: Post-emergence herbicidal action against STEME; type: in vivo, Stellaria media; settings: Stellaria media, 504 h
Summary of the method: as §1

AVEFA [2] = experiment: Post-emergence herbicidal action against AVEFA; type: in vivo, Avena fatua; settings: Avena fatua, 504 h, visual assessment about 3 weeks after treatment, 100% = plants have died, 0% = like control plants
Summary of the method: as §1

HORMU [3] = experiment: Pre-emergence herbicidal action against HORMU; type: in vivo, Hordeum murinum; settings: Hordeum murinum, 504 h, pre-emergence
Summary of the method: (§2)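 Pre-emergence soil-surface spray of formulated compound (WP or EC; 600 to 800 l/ha; 0.2% wetting agent) over seeds sown in sandy loam. After 3 weeks under greenhouse conditions, damage is estimated visually in percent against untreated plants.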

HORMU [4] = experiment: Post-emergence herbicidal action against HORMU; type: in vivo, Hordeum murinum; settings: Hordeum murinum, 504 h; for pest or weed control at 20 g/ha: dosage 20 g/ha; for pest or weed control at 80 g/ha: dosage 80 g/ha
Summary of the method: as §1

MATIN [5] = experiment: Post-emergence herbicidal action against MATIN; type: in vivo, Matricaria inodora; settings: Tripleurospermum inodorum, 504 h; for pest or weed control at 20 g/ha: dosage 20 g/ha; for pest or weed control at 80 g/ha: dosage 80 g/ha
Summary of the method: as §1

ECHCG [6] = experiment: Pre-emergence herbicidal action against ECHCG; type: in vivo, Echinochloa crus-galli; settings: Echinochloa crus-galli, 504 h
Summary of the method: as §2

ALOMY [7] = experiment: Pre-emergence herbicidal action against ALOMY; type: in vivo, Alopecurus myosuroides; settings: Alopecurus myosuroides, 504 h, pre-emergence; for pest or weed control at 80 g/ha: scored visually after 3 weeks vs untreated controls (100% = plants have died, 0% = like control plants); for pest or weed control at 320 g/ha: scored visually after 3 weeks, 100% = plants have died, 0% = like control plants
Summary of the method: as §2

AMARE [8] = experiment: Pre-emergence herbicidal action against AMARE; type: in vivo, Amaranthus retroflexus; settings: Amaranthus retroflexus, 504 h, 100% = plants have died, 0% = like control plants; for pest or weed control at 80 g/ha: scored visually after 3 weeks vs untreated controls; for pest or weed control at 320 g/ha: scored visually after 3 weeks
Summary of the method: as §2

ECHCG [9] = experiment: Post-emergence herbicidal action against ECHCG; type: in vivo, Echinochloa crus-galli; settings: Echinochloa crus-galli, 504 h; for pest or weed control at 20 g/ha: dosage 20 g/ha; for pest or weed control at 80 g/ha: dosage 80 g/ha
Summary of the method: as §1

VERPE = experiment: Pre-emergence herbicidal action against VERPE; type: in vivo, Veronica persica; settings: Veronica persica, 504 h; for pest or weed control at 320 g/ha: dosage 320 g/ha
Summary of the method: as §2

POLCO = experiment: Post-emergence herbicidal action against POLCO; type: in vivo, Polygonum convolvulus; settings: Fallopia convolvulus, 504 h; for pest or weed control at 80 g/ha: dosage 80 g/ha; for pest or weed control at 20 g/ha: dosage 20 g/ha
Summary of the method: as §1

STEME [10] = experiment: Pre-emergence herbicidal action against STEME; type: in vivo, Stellaria media; settings: Stellaria media, 504 h; for pest or weed control at 80 g/ha: dosage 80 g/ha; for pest or weed control at 320 g/ha: dosage 320 g/ha
Summary of the method: as §2

ALOMY [11] = experiment: Post-emergence herbicidal action against ALOMY; type: in vivo, Alopecurus myosuroides; settings: Alopecurus myosuroides, 504 h, visual assessment about 3 weeks after treatment vs untreated controls; for pest or weed control at 20 g/ha: dosage 20 g/ha; for pest or weed control at 80 g/ha: dosage 80 g/ha
Summary of the method: as §1

AMARE [12] = experiment: Post-emergence herbicidal action against AMARE; type: in vivo, Amaranthus retroflexus; settings: Amaranthus retroflexus, 504 h, visual assessment about 3 weeks after treatment, 100% = plants have died, 0% = like control plants
Summary of the method: as §1

PHBPU = experiment: Post-emergence herbicidal action against PHBPU; type: in vivo, Pharbitis purpurea; settings: Ipomoea purpurea, 504 h; for pest or weed control at 80 g/ha: dosage 80 g/ha
Summary of the method: as §1

SETVI [13] = experiment: Pre-emergence herbicidal action against SETVI; type: in vivo, Setaria viridis; settings: Setaria viridis, 504 h; for pest or weed control at 80 g/ha: dosage 80 g/ha; for pest or weed control at 320 g/ha: dosage 320 g/ha
Summary of the method: as §2

AVEFA [14] = experiment: Pre-emergence herbicidal action against AVEFA; type: in vivo, Avena fatua; settings: Avena fatua, 504 h, pre-emergence; for pest or weed control at 320 g/ha: scored visually after 3 weeks, 100% = plants have died, 0% = like control plants
Summary of the method: as §2

ABUTH = experiment: Pre-emergence herbicidal action against ABUTH; type: in vivo, Abutilon theophrasti; settings: Abutilon theophrasti, 504 h; for pest or weed control at 80 g/ha: scored visually after 3 weeks vs untreated controls (100% = plants have died, 0% = like control plants); for pest or weed control at 320 g/ha: Dosage: 320 g/ha, scored visually after 3 weeks, 100% = plants have died, 0% = like control plants
Summary of the method: as §2

LOLRI [15] = experiment: Post-emergence herbicidal action against LOLRI; type: in vivo, Lolium rigidum; settings: Lolium rigidum, 504 h, dosage 80 g/ha
Summary of the method: as §1

MATIN [16] = experiment: Pre-emergence herbicidal action against MATIN; type: in vivo, Matricaria inodora; settings: Tripleurospermum inodorum, 504 h; for pest or weed control at 80 g/ha: dosage 80 g/ha; for pest or weed control at 320 g/ha: dosage 320 g/ha
Summary of the method: as §2

LOLRI [17] = experiment: Pre-emergence herbicidal action against LOLRI; type: in vivo, Lolium rigidum; settings: Lolium rigidum, 504 h, 320 g/ha
Summary of the method: as §2

SETVI [18] = experiment: Post-emergence herbicidal action against SETVI; type: in vivo, Setaria viridis; settings: Setaria viridis, 504 h, dosage 80 g/ha
Summary of the method: as §1

Row | Structure (SMILES) | pest or weed control at 80 g/ha (VIOTR) | pest or weed control at 20 g/ha (STEME [1]) | pest or weed control at 80 g/ha (STEME [1]) | pest or weed control at 20 g/ha (AVEFA [2]) | pest or weed control at 80 g/ha (AVEFA [2]) | pest or weed control at 80 g/ha (HORMU [3]) | pest or weed control at 320 g/ha (HORMU [3]) | pest or weed control at 20 g/ha (HORMU [4]) | pest or weed control at 80 g/ha (HORMU [4]) | pest or weed control at 20 g/ha (MATIN [5]) | pest or weed control at 80 g/ha (MATIN [5]) | pest or weed control at 80 g/ha (ECHCG [6]) | pest or weed control at 320 g/ha (ECHCG [6]) | pest or weed control at 80 g/ha (ALOMY [7]) | pest or weed control at 320 g/ha (ALOMY [7]) | pest or weed control at 80 g/ha (AMARE [8]) | pest or weed control at 320 g/ha (AMARE [8]) | pest or weed control at 20 g/ha (ECHCG [9]) | pest or weed control at 80 g/ha (ECHCG [9]) | pest or weed control at 320 g/ha (VERPE) | other results
1 | CCn1nnnc1NC(=O)c1ccc(C(F)F)c(C(=O)NC)c1Cl [Example 2-147] | 80% | 80% | 90% | 90% | 100% | 90% | 100% | 80% | 90% | 100% | 100% | 100% | 100% | 90% | 100% | 100% | 100% | 90% | 90% | 90% | pest or weed control at 80 g/ha (POLCO): 80%; pest or weed control at 80 g/ha (STEME [10]): 100%; pest or weed control at 320 g/ha (STEME [10]): 100%; pest or weed control at 20 g/ha (ALOMY [11]): 80%; pest or weed control at 80 g/ha (ALOMY [11]): 90%; pest or weed control at 20 g/ha (AMARE [12]): 90%; pest or weed control at 80 g/ha (AMARE [12]): 90%; pest or weed control at 80 g/ha (PHBPU): 80%; pest or weed control at 80 g/ha (SETVI [13]): 100%; pest or weed control at 320 g/ha (SETVI [13]): 100%; pest or weed control at 80 g/ha (AVEFA [14]): 100%; pest or weed control at 320 g/ha (AVEFA [14]): 100%; pest or weed control at 80 g/ha (ABUTH): 100%; pest or weed control at 320 g/ha (ABUTH): 100%; pest or weed control at 80 g/ha (LOLRI [15]): 90%; pest or weed control at 80 g/ha (MATIN [16]): 100%; pest or weed control at 320 g/ha (MATIN [16]): 100%; pest or weed control at 320 g/ha (LOLRI [17]): 90%
2 | CNC(=O)c1c(C(F)F)ccc(C(=O)Nc2nnnn2C)c1Cl [Example 1-147] | 80% | 80% | 90% | 90% | 90% | 90% | 100% | 80% | 90% | 100% | 100% | 100% | 100% | 90% | 100% | 100% | 100% | 90% | 90% | 90% | pest or weed control at 20 g/ha (POLCO): 90%; pest or weed control at 80 g/ha (POLCO): 90%; pest or weed control at 80 g/ha (STEME [10]): 100%; pest or weed control at 320 g/ha (STEME [10]): 100%; pest or weed control at 20 g/ha (ALOMY [11]): 80%; pest or weed control at 80 g/ha (ALOMY [11]): 90%; pest or weed control at 20 g/ha (AMARE [12]): 90%; pest or weed control at 80 g/ha (AMARE [12]): 90%; pest or weed control at 20 g/ha (PHBPU; dosage 20 g/ha): 80%; pest or weed control at 80 g/ha (PHBPU): 90%; pest or weed control at 80 g/ha (SETVI [13]): 100%; pest or weed control at 320 g/ha (SETVI [13]): 100%; pest or weed control at 80 g/ha (AVEFA [14]): 100%; pest or weed control at 320 g/ha (AVEFA [14]): 100%; pest or weed control at 80 g/ha (ABUTH): 90%; pest or weed control at 320 g/ha (ABUTH): 100%; pest or weed control at 80 g/ha (LOLRI [15]): 90%; pest or weed control at 80 g/ha (MATIN [16]): 90%; pest or weed control at 320 g/ha (MATIN [16]): 100%; pest or weed control at 320 g/ha (LOLRI [17]): 100%
3 | CCNC(=O)c1c(C(F)F)ccc(C(=O)Nc2nnnn2CC)c1Cl [Example 2-148] | 80% | 80% | 80% | 90% | 90% | 90% | 100% | 80% | 90% | 90% | 90% | 100% | 100% | 90% | 100% | 100% | 100% | 80% | 90% | 100% | pest or weed control at 80 g/ha (VERPE; dosage 80 g/ha): 80%; pest or weed control at 20 g/ha (POLCO): 90%; pest or weed control at 80 g/ha (POLCO): 90%; pest or weed control at 80 g/ha (STEME [10]): 90%; pest or weed control at 320 g/ha (STEME [10]): 100%; pest or weed control at 20 g/ha (ALOMY [11]): 80%; pest or weed control at 80 g/ha (ALOMY [11]): 90%; pest or weed control at 20 g/ha (AMARE [12]): 90%; pest or weed control at 80 g/ha (AMARE [12]): 90%; pest or weed control at 80 g/ha (SETVI [13]): 100%; pest or weed control at 320 g/ha (SETVI [13]): 100%; pest or weed control at 80 g/ha (AVEFA [14]): 100%; pest or weed control at 320 g/ha (AVEFA [14]): 100%; pest or weed control at 80 g/ha (ABUTH): 100%; pest or weed control at 320 g/ha (ABUTH): 100%; pest or weed control at 80 g/ha (LOLRI [15]): 80%; pest or weed control at 80 g/ha (MATIN [16]): 100%; pest or weed control at 320 g/ha (MATIN [16]): 100%; pest or weed control at 320 g/ha (LOLRI [17]): 90%; pest or weed control at 80 g/ha (SETVI [18]): 80%
